In patent US5089516A, “1-phenyl-3,5-pyrazolidinedione hydroxystyrene compounds which have tyrosine kinase inhibiting activity” (Kanegafuchi Kagaku Kogyo Kabushiki Kaisha, priority 1987, dated 1992):

Test system: antigen-induced anaphylactic shock death
Experiment: Protecting effect against antigen-induced anaphylactic shock death in actively sensitized guinea pigs
Assay type: in vivo, male guinea pigs
Conditions: Cavia porcellus, 1.5 h, oral, 30 minutes before antigen inhalation
Description: (2) Protecting effect against antigen-induced anaphylactic shock death in actively sensitized guinea pigs
Anaphylactic shock death caused by inhalation of antigen was observed according to John P. Devlin Pulmonary and Antiallergic Drugs, John Wiley & Sons, (1985)] employing actively sensitized guinea pigs.
Each 100 mg/kg of body weight ovalbumin dissolved in physiological saline was injected into gluteus and into peritoneal cavity of male guinea pigs weighing 250 to 350 g. Three days later, the animals were further injected intraperitoneally with ovalbumin (100 mg/kg body weight) to conduct booster. Those animals were employed for testing 3 to 4 weeks after the sensitization.
In each group, 4 or more actively sensitized guinea pigs were pretreated by subcutaneously injecting pyrilamine (1 mg/kg body weight) 30 minutes before antigen inhalation to suppress histamine-dependent response and propranolol (1 mg/kg body weight) to enhance the response induced by other than histamine 10 minutes before the antigen inhalation.
The animal was placed in a desiccator with a capacity of about […] and 0.5% aqueous solution of ovalbumin in the state of aerosol was inhaled with ultrasonic type nebulizer for five minutes. Anaphylactic shock death was observed and the animals survived for 90 minutes or more after antigen inhalation were estimated to be protected. All the animals of the control group died due to anaphylactic shock. The compounds of the present invention and therapeutic antiasthmatic agent (tranilast, theophylline) were administered orally 30 minutes before the antigen inhalation.

| Compound | responders at 10 mg/kg [%] | responders at 100 mg/kg [%] |
| --- | --- | --- |
| CC(C)c1cc(C=C2SC(NCc3ccc(F)cc3)=NC2=O)cc(C(C)C)c1O [Compound 35] | 50 |  |
| CC(C)c1cc(C=C2SC(NCc3ccc(Cl)c(Cl)c3)=NC2=O)cc(C(C)C)c1O [Compound 37] |  | 25 |
| Cc1ccc(CNC2=NC(=O)C(=Cc3cc(C(C)C)c(O)c(C(C)C)c3)S2)cc1 [Compound 39] |  | 25 |
| CC(C)c1cc(C=C2SC(NCc3ccc(S(N)(=O)=O)cc3)=NC2=O)cc(C(C)C)c1O [Compound 41] | 25 |  |
